According to patent US20230227427A1, “IL-17A MODULATORS” (SANOFI, priority 2010, published 2023):

Target: T1, human recombinant IL-17A (Homo sapiens, UniProt Q16552)
T1 construct: purchased R&D Systems 7955-IL/CF
T1 sequence (Q16552 24-155): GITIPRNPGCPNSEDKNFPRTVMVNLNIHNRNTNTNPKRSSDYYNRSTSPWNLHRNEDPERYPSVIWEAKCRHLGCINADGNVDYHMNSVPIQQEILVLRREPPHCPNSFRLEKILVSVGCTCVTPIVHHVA
Experiment: IL-17A AlphaLISA assay (block binding of IL-17A to its receptor IL-17RA)
Conditions: compounds pre-incubated with the IL-17A for 30 min (indicated by * in Table A); read-out: AlphaLISA pIC50 (converted)
Method in brief: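 Compounds pre-incubated 24 h at RT (30 min where flagged) with human IL-17A (7.5 nM stock) before IL-17RA/Fc (5 nM stock), 90 min. Read by AlphaLISA via anti-Fc acceptor and biotin anti-IL-17A/streptavidin donor beads, 680/615 nm. 4-parameter fit; DMSO and 6 μM reference inhibitor as controls; pIC50.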

Row | SMILES | IC50
1 | CCn1nncc1C(=O)N[C@H](C(=O)Nc1ccc(-c2c(C)cnn2C)cn1)[C@H]1CC[C@H](C)CC1 [Example 168, N—((S)-2-((5-(1,4-dimethyl-1H-pyrazol-5-yl)pyridin-2-yl)amino)-1-((1r,4S)-4-methylcyclohexyl)-2-oxoethyl)-1-ethyl-1H-1,2,3-triazole-5-carboxamide] | 158 nM
2 | CCn1nccc1C(=O)N[C@H](C(=O)Nc1ccc(-c2c(Cl)cnn2C)cn1)[C@H]1CC[C@H](C)CC1 [Example 199, N—((S)-2-((5-(4-chloro-1-methyl-1H-pyrazol-5-yl)pyridin-2-yl)amino)-1-((1r,4S)-4-methylcyclohexyl)-2-oxoethyl)-1-ethyl-1H-pyrazole-5-carboxamide] | 100 nM
3 | Cc1noc(C)c1-c1cnc(NC(=O)[C@@H](NC(=O)c2ccnn2C)C2CCCCCC2)cn1 [Example 158, (S)—N-(1-cycloheptyl-2-((5-(3,5-dimethylisoxazol-4-yl)pyrazin-2-yl)amino)-2-oxoethyl)-1-methyl-1H-pyrazole-5-carboxamide] | 631 nM
4 | Cc1cc(=O)n(C)c(C)c1-c1ccc(NC(=O)[C@@H](NC(=O)c2ccnn2C)[C@H]2CC[C@H](C)CC2)nc1 [Example 215, 1-methyl-N—((S)-1-((1r,4S)-4-methylcyclohexyl)-2-oxo-2-((1′,2′,4′-trimethyl-6′-oxo-1′,6′-dihydro-[3,3′-bipyridin]-6-yl)amino)ethyl)-1H-pyrazole-5-carboxamide] | 126 nM
5 | Cc1c(-c2ccc(NC(=O)C(NC(=O)c3ccnn3C)C3CCCCCCC3)cc2)ccc(=O)n1C (stereo not drawn) [Example 107, N-(1-Cyclooctyl-2-((4-(1,2-dimethyl-6-oxo-1,6-dihydropyridin-3-yl)phenyl)amino)-2-oxoethyl)-1-methyl-1H-pyrazole-5-carboxamide] | 158 nM
6 | Cc1cnn(C)c1-c1ccc(NC(=O)C(NC(=O)c2ccnn2C)[C@H]2CC[C@H](C(F)(F)F)CC2)nc1 (stereo partly drawn) [Example 185, N-(2-((5-(1,4-dimethyl-1H-pyrazol-5-yl)pyridin-2-yl)amino)-2-oxo-1-((1r,4r)-4-(trifluoromethyl)cyclohexyl)ethyl)-1-methyl-1H-pyrazole-5-carboxamide] | 631 nM
7 | Cc1nocc1C(=O)N[C@H](C(=O)Nc1ccc(-c2c(C)noc2C)cn1)[C@H]1CC[C@H](C)CC1 [Example 112, N—((S)-2-((5-(3,5-dimethylisoxazol-4-yl)pyridin-2-yl)amino)-1-((1r,4S)-4-methylcyclohexyl)-2-oxoethyl)-3-methylisoxazole-4-carboxamide] | 100 nM
8 | CCc1nocc1C(=O)N[C@H](C(=O)Nc1ccc(-c2c(C)noc2C)nc1)C1CCCCCC1 [Example 171, (S)—N-(1-cycloheptyl-2-((6-(3,5-dimethylisoxazol-4-yl)pyridin-3-yl)amino)-2-oxoethyl)-3-ethylisoxazole-4-carboxamide] | 79.4 nM
9 | CCc1nocc1C(=O)N[C@H](C(=O)Nc1ccc(-c2ncncc2C)cn1)[C@H]1CC[C@H](C)CC1 [Example 140, 3-Ethyl-N—((S)-1-((1r,4S)-4-methylcyclohexyl)-2-((5-(5-methylpyrimidin-4-yl)pyridin-2-yl)amino)-2-oxoethyl)isoxazole-4-carboxamide] | 631 nM
10 | CCn1nnc(C)c1-c1ccc(NC(=O)[C@@H](NC(=O)c2ccnn2C)C2CCCCCC2)nc1 [Example 157, (S)—N-(1-cycloheptyl-2-((5-(1-ethyl-4-methyl-1H-1,2,3-triazol-5-yl)pyridin-2-yl)amino)-2-oxoethyl)-1-methyl-1H-pyrazole-5-carboxamide] | 251 nM
11 | CCn1nccc1C(=O)N[C@H](C(=O)Nc1ccc(-c2c(C)cnn2C)nc1)[C@H]1CC[C@H](C)CC1 [Example 154, N—((S)-2-((6-(1,4-dimethyl-1H-pyrazol-5-yl)pyridin-3-yl)amino)-1-((1r,4S)-4-methylcyclohexyl)-2-oxoethyl)-1-ethyl-1H-pyrazole-5-carboxamide] | 251 nM
12 | CCn1nccc1C(=O)N[C@H](C(=O)Nc1ccc(-c2c(Cl)cnn2C)cn1)C1CCCCCC1 [Example 176, (S)—N-(2-((5-(4-chloro-1-methyl-1H-pyrazol-5-yl)pyridin-2-yl)amino)-1-cycloheptyl-2-oxoethyl)-1-ethyl-1H-pyrazole-5-carboxamide] | 39.8 nM

Same assay, conditions: compounds pre-incubated with the IL-17A for 24 h at room temperature; read-out: AlphaLISA pIC50 (converted)

Row | SMILES | IC50
13 | Cc1cncc(C)c1-c1ccc(NC(=O)[C@@H](NC(=O)c2ccnn2C)C(c2ccccc2)c2ccccc2)cc1F [Example 14, (S)—N-(1-((4-(3,5-dimethylpyridin-4-yl)-3-fluorophenyl)amino)-1-oxo-3,3-diphenylpropan-2-yl)-1-methyl-1H-pyrazole-5-carboxamide] | 39.8 nM
14 | Cn1nccc1C(=O)N[C@H](C(=O)Nc1ccc(-c2cccc(=O)[nH]2)c(F)c1)C(c1ccccc1)c1ccccc1 [Example 77, (S)—N-(1-((3-fluoro-4-(6-oxo-1,6-dihydropyridin-2-yl)phenyl)amino)-1-oxo-3,3-diphenylpropan-2-yl)-1-methyl-1H-pyrazole-5-carboxamide] | 126 nM
15 | COc1cncc(OC)c1-c1ccc(NC(=O)[C@@H](NC(=O)c2ccnn2C)C(c2ccccc2)c2ccccc2)cc1 [Example 9, (S)—N-(1-((4-(3,5-dimethoxypyridin-4-yl)phenyl)amino)-1-oxo-3,3-diphenylpropan-2-yl)-1-methyl-1H-pyrazole-5-carboxamide] | 6.31 nM
16 | Cc1[nH]ncc1-c1ccc(NC(=O)[C@@H](NC(=O)c2ccnn2C)C(c2ccccc2)c2ccccc2)cc1 [Example 74, (S)-1-methyl-N-(1-((4-(5-methyl-1H-pyrazol-4-yl)phenyl)amino)-1-oxo-3,3-diphenylpropan-2-yl)-1H-pyrazole-5-carboxamide] | 31.6 nM
17 | Cn1nccc1C(=O)N[C@H](C(=O)Nc1ccc(-c2c[nH]c(=O)c3cccnc23)c(F)c1)C(c1ccccc1)c1ccccc1 [Example 66, (S)—N-(1-((3-fluoro-4-(5-oxo-5,6-dihydro-1,6-naphthyridin-8-yl)phenyl)amino)-1-oxo-3,3-diphenylpropan-2-yl)-1-methyl-1H-pyrazole-5-carboxamide] | 25.1 nM
18 | COc1cncc(F)c1-c1ccc(NC(=O)[C@@H](NC(=O)c2ccnn2C)C(c2ccccc2)c2ccccc2)cc1F [Example 18, N-((2S)-1-((3-fluoro-4-(3-fluoro-5-methoxypyridin-4-yl)phenyl)amino)-1-oxo-3,3-diphenylpropan-2-yl)-1-methyl-1H-pyrazole-5-carboxamide] | 31.6 nM
19 | CCn1nccc1C(=O)N[C@H](C(=O)Nc1ccc(-c2ccc(=O)n(C)c2C)cn1)[C@H]1CC[C@H](C)CC1 [Example 91, N—((S)-2-((1′,2′-Dimethyl-6′-oxo-1′,6′-dihydro-[3,3′-bipyridin]-6-yl)amino)-1-((1r,4S)-4-methylcyclohexyl)-2-oxoethyl)-1-ethyl-1H-pyrazole-5-carboxamide] | 251 nM
20 | Cn1nccc1C(=O)N[C@H](C(=O)Nc1ccc(C2(O)CCOCC2)cc1)[C@H]1CC[C@H](C)CC1 [Example 94, N—((S)-2-((4-(4-Hydroxytetrahydro-2H-pyran-4-yl)phenyl)amino)-1-((1r,4S)-4-methylcyclohexyl)-2-oxoethyl)-1-methyl-1H-pyrazole-5-carboxamide] | 126 nM
21 | CN(C)c1cnccc1-c1ccc(NC(=O)[C@@H](NC(=O)c2ccnn2C)C(c2ccccc2)c2ccccc2)cc1 [Example 8, (S)—N-(1-((4-(3-(dimethylamino)pyridin-4-yl)phenyl)amino)-1-oxo-3,3-diphenylpropan-2-yl)-1-methyl-1H-pyrazole-5-carboxamide] | 15.8 nM
22 | Cc1noc(C)c1-c1ccc(NC(=O)[C@@H](NC(=O)c2ccnn2C)[C@H]2CC[C@H](C)CC2)cc1 [Example 96, N—((S)-2-((4-(3,5-Dimethylisoxazol-4-yl)phenyl)amino)-1-((1r,4S)-4-methylcyclohexyl)-2-oxoethyl)-1-methyl-1H-pyrazole-5-carboxamide] | 50.1 nM
23 | Cc1cncc(C)c1-c1ccc(NC(=O)[C@@H](NC(=O)c2ccnn2C)C(c2ccccc2)c2ccccc2)cc1 [Example 6, (S)—N-(1-((4-(3,5-dimethylpyridin-4-yl)phenyl)amino)-1-oxo-3,3-diphenylpropan-2-yl)-1-methyl-1H-pyrazole-5-carboxamide] | 12.6 nM
24 | Cc1[nH]c(=O)ccc1-c1ccc(NC(=O)[C@@H](NC(=O)c2ccnn2C)C(c2ccccc2)c2ccccc2)cc1 [Example 11, (S)-1-methyl-N-(1-((4-(2-methyl-6-oxo-1,6-dihydropyridin-3-yl)phenyl)amino)-1-oxo-3,3-diphenylpropan-2-yl)-1H-pyrazole-5-carboxamide] | 15.8 nM
25 | Cc1nccc(-c2ccc(NC(=O)[C@@H](NC(=O)c3ccnn3C)C(c3ccccc3)c3ccccc3)cc2)c1C [Example 1, (S)—N-(1-((4-(2,3-dimethylpyridin-4-yl)phenyl)amino)-1-oxo-3,3-diphenylpropan-2-yl)-1-methyl-1H-pyrazole-5-carboxamide] | 50.1 nM
26 | Cn1nccc1C(=O)N[C@H](C(=O)Nc1ccc(-c2c[nH]c(=O)c3[nH]ccc23)cc1)C(c1ccccc1)c1ccccc1 [Example 52, (S)-1-methyl-N-(1-oxo-1-((4-(7-oxo-6,7-dihydro-1H-pyrrolo[2,3-c]pyridin-4-yl)phenyl)amino)-3,3-diphenylpropan-2-yl)-1H-pyrazole-5-carboxamide] | 12.6 nM
27 | Cn1nccc1C(=O)N[C@H](C(=O)Nc1ccc(-c2cccc(=O)n2C)c(F)c1)C(c1ccccc1)c1ccccc1 [Example 71, (S)—N-(1-((3-fluoro-4-(1-methyl-6-oxo-1,6-dihydropyridin-2-yl)phenyl)amino)-1-oxo-3,3-diphenylpropan-2-yl)-1-methyl-1H-pyrazole-5-carboxamide] | 15.8 nM
